Blank lines part the entries; values can stand above or below the compound they belong to.
Columns and labels:
[1] = biological target: rat mGlu5 (Rattus norvegicus, UniProt P31424); assay: Calcium mobilization mGlu5 assay; type: cell-based; conditions: for fold reduction of mGlu5 potency, secondary amine to ether: 26 relative to 13, 29 relative to 4
[2] = biological target: mGlu8 (Homo sapiens, UniProt O00222); assay: Selectivity versus additional mGlus; type: cell-based
[3] = biological target: mGlu3 (Homo sapiens, UniProt Q14832); assay: Selectivity versus additional mGlus; type: cell-based
Sequence of mGlu3 (Q14832 23-879): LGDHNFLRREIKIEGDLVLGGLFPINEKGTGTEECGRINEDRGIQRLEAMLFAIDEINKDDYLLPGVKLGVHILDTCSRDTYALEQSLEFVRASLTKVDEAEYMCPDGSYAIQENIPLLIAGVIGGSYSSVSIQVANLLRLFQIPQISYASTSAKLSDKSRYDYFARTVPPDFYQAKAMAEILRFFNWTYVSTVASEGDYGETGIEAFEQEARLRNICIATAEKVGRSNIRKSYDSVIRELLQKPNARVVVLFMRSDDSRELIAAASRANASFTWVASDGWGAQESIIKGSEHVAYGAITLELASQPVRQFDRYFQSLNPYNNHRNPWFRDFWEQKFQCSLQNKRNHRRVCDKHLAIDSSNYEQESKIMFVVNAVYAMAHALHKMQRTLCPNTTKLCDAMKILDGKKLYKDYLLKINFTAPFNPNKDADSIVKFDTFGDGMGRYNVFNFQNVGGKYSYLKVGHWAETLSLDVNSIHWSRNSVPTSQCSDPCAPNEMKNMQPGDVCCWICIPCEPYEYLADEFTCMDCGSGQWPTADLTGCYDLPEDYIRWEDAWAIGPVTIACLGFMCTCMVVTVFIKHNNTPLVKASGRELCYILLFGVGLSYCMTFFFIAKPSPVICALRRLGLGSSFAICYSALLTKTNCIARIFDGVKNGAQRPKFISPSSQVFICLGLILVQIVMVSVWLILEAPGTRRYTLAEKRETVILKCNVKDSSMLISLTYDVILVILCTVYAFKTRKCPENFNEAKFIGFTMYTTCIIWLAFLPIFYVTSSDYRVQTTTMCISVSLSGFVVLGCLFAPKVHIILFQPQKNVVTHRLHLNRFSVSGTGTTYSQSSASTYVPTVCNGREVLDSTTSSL

[4] = biological target: mGlu4 (Homo sapiens, UniProt Q14833); assay: Selectivity versus additional mGlus; type: cell-based
Sequence of mGlu4 (Q14833 33-912): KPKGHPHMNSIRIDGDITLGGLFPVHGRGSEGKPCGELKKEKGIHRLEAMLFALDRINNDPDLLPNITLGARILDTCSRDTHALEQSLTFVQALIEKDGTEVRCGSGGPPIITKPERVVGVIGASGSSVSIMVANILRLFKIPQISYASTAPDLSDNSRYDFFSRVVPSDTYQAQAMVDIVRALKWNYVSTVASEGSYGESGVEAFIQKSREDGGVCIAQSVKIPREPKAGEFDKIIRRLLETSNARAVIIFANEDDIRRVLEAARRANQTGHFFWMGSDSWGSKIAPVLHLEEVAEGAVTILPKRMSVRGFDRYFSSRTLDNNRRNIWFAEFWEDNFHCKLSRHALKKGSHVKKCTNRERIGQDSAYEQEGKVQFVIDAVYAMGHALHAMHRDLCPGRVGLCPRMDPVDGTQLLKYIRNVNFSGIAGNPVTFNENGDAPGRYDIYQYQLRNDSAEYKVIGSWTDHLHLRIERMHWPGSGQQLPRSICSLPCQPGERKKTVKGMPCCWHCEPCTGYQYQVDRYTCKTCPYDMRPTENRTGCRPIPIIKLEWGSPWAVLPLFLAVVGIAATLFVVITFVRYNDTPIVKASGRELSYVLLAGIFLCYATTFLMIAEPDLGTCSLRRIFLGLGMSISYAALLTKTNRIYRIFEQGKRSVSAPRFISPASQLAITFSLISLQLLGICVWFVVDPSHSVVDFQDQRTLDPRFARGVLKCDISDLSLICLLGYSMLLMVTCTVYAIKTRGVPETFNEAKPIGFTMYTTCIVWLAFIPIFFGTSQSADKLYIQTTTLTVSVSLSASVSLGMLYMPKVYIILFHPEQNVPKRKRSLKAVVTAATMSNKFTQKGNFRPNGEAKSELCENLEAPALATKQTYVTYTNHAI

[5] = biological target: mGlu2 (Homo sapiens, UniProt Q14416); assay: Selectivity versus additional mGlus; type: cell-based
Sequence of mGlu2 (Q14416 19-872): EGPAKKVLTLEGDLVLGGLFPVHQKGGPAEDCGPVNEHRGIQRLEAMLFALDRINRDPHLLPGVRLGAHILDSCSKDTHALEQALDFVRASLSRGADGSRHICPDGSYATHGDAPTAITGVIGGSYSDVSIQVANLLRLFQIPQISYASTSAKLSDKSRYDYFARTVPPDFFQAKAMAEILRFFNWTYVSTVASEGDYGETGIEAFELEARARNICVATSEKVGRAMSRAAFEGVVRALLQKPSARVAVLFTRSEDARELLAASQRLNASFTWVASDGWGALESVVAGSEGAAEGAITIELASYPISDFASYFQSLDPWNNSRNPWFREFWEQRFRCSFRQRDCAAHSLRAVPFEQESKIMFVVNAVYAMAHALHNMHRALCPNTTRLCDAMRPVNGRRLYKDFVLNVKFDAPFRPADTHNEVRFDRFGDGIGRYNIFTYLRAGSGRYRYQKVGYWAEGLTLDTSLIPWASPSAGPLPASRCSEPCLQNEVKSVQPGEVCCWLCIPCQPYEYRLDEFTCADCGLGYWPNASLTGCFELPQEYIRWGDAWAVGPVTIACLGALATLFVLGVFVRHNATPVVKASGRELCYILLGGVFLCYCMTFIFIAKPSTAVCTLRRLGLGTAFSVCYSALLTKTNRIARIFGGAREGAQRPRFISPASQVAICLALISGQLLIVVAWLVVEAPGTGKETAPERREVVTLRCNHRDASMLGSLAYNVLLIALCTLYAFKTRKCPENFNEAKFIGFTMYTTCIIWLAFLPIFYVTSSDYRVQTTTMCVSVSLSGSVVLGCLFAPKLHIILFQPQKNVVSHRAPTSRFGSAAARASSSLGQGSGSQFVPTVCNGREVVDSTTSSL

[6] = biological target: mGlu7 (Homo sapiens, UniProt Q14831); assay: Selectivity versus additional mGlus; type: cell-based
Sequence of mGlu7 (Q14831 35-915): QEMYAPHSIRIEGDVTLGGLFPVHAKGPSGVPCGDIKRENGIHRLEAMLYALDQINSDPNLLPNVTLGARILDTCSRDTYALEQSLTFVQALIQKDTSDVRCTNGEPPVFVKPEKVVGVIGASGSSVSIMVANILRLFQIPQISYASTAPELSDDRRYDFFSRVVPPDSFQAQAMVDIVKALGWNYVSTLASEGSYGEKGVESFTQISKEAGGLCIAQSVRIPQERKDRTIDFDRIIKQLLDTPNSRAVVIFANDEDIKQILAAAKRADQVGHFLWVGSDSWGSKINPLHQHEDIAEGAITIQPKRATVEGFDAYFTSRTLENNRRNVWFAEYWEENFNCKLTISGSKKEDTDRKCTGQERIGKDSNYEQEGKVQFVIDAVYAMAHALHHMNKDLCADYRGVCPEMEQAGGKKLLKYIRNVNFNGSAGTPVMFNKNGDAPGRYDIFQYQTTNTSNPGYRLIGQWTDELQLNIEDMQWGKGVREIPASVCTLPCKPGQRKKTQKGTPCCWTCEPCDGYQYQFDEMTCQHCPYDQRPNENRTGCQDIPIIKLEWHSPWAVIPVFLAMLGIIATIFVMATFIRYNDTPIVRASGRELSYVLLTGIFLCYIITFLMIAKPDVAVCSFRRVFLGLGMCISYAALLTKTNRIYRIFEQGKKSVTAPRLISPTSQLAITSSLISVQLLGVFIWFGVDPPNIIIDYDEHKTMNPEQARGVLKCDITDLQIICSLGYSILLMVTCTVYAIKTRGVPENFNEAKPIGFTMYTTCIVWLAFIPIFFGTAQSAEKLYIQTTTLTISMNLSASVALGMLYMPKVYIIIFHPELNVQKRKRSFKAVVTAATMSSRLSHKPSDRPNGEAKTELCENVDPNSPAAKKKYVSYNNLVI

[7] = tested on: EGFR; conditions: read-out: EGFR autophosphorylation IC50; A431 cells; cited from earlier work

Sequence of rat mGlu5 (P31424 21-1203): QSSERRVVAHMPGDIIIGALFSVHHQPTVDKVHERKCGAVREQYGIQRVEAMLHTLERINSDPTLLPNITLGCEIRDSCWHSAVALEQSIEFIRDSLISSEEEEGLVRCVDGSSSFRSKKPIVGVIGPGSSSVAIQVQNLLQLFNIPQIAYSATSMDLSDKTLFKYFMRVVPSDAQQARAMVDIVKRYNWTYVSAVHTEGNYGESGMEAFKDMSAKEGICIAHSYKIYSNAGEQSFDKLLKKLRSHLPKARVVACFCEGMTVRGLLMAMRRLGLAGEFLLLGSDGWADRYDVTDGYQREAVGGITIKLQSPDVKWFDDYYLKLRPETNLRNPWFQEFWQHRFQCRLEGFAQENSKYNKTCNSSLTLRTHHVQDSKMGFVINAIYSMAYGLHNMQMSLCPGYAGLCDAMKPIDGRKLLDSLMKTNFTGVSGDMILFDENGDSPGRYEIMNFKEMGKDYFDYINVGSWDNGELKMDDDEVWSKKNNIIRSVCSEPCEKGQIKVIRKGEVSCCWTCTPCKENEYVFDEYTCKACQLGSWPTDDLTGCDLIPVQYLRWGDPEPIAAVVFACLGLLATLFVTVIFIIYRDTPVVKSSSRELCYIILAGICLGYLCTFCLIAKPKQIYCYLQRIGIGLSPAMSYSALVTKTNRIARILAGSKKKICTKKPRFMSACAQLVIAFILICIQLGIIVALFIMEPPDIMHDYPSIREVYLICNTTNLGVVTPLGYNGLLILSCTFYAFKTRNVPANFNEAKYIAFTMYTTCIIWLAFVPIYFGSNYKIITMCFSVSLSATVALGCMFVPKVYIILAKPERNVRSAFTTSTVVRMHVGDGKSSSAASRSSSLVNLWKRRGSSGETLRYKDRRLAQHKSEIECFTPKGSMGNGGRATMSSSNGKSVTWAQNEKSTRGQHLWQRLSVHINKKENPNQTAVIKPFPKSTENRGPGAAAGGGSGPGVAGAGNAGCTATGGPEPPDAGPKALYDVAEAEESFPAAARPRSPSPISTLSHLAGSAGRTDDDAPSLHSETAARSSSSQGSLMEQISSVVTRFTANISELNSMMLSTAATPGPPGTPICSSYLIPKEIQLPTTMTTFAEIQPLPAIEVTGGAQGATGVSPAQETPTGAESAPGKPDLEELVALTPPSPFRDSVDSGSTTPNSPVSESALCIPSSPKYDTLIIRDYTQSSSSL

- activity against mGlu8 [2]: inactive
- activity against mGlu3 [3]: inactive
- activity against mGlu4 [4]: inactive
- activity against mGlu2 [5]: inactive
- activity against mGlu7 [6]: inactive
Compound: Clc1cccc(Nc2ncnc3ccc(Br)cc23)c1 [Compound 1]

- fold reduction of mGlu5 potency, secondary amine to ether [1]: more than 50 fold
Compound: Clc1ccc2ncnc(Oc3cccc(Br)c3)c2c1 [Compound 26]

- activity against mGlu8 [2]: inactive
- activity against mGlu3 [3]: inactive
- activity against mGlu4 [4]: inactive
- activity against mGlu2 [5]: inactive
- activity against mGlu7 [6]: inactive
Compound: Clc1ccc2ncnc(Nc3cccc(Br)c3)c2c1 [Compound 13]

- fold reduction of mGlu5 potency, secondary amine to ether [1]: more than 50 fold
Compound: Brc1cccc(Oc2ncnc3ccc(Br)cc23)c1 [Compound 29]

Continued, compound first:

Compound: Brc1cccc(Nc2nccc3ccc(Br)cc23)c1 [Compound 15]
- fold reduction of mGlu5 activity relative to 4 ([1]; relative to 6-bromoquinazoline comparator 4): approximately 25 fold

Compound: CCc1cccc(Nc2ncnc3ccc(F)cc23)c1 [Compound 36]
- % Glu max ([1]; amplitude of response in the presence of 30 μM test compound as a percentage of maximal response (100 μM glutamate), average of n ≥ 3): weak potentiator

Compound: Clc1cccc(Nc2ncnc3ccc(Cl)cc23)c1 [Compound 9]
- IC50 [7]: 2700 nM

Compound: Fc1ccc2ncnc(Nc3cccc(Br)c3)c2c1 [Compound 32]
- activity against mGlu8 [2]: inactive
- activity against mGlu3 [3]: inactive
- activity against mGlu4 [4]: inactive
- activity against mGlu2 [5]: inactive
- activity against mGlu7 [6]: inactive

Compound: FC(F)(F)c1cccc(Nc2ncnc3ccc(Br)cc23)c1 [Compound 6]
- fold less potent at mGlu5 than 5 ([1]; relative to 3-methylaniline 5): 7 fold
